Assay [1] addresses T1, dSARM1 ARM (Drosophila SARM1 ARM domain) (Drosophila melanogaster, UniProt Q6IDD9).
T1 sequence (Q6IDD9 315-678): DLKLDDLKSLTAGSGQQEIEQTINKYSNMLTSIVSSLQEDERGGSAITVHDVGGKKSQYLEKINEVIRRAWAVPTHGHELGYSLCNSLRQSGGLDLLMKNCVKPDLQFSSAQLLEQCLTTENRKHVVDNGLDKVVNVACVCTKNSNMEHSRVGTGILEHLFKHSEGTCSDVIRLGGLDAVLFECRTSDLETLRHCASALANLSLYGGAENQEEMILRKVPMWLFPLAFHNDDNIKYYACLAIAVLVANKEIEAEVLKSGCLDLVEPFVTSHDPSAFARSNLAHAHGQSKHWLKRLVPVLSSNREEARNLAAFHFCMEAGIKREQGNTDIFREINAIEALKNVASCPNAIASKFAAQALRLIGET
Nature of the assay: crystal structure. It counts as binding.

The next assay concerns the target T2, hSARM1 (human SARM1) (Homo sapiens, UniProt Q6SZW1).
T2 sequence (Q6SZW1 28-724): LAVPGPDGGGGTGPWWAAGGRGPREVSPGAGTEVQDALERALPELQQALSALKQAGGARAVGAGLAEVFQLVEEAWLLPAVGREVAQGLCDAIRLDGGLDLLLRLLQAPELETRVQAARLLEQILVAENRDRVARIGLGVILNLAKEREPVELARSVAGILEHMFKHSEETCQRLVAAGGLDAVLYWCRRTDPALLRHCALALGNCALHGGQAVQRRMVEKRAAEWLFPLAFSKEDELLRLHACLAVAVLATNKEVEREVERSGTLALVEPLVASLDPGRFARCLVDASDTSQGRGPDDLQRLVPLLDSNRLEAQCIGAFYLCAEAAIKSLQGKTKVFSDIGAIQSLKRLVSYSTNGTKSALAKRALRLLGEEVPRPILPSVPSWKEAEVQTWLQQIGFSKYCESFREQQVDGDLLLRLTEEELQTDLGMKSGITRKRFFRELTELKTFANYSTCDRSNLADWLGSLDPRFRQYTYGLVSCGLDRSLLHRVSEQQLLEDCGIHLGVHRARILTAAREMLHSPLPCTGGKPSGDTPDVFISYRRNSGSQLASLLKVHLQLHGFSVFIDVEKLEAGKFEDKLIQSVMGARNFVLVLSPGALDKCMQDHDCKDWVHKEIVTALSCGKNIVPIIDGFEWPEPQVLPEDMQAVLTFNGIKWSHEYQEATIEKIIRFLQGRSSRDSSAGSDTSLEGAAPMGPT
In words: STD NMR with NMN competition. It counts as biochemical.

The values below come from PMC8571713 (Experimental neurology, 2021).

What is called IC50 is the concentration at which inhibition is half-maximal. High values mean weaker potency in that assay, low ones greater potency in that assay.

Consider `O=C([O-])c1ccc[n+]([C@@H]2O[C@H](COP(=O)(O)O)[C@@H](O)[C@H]2O)c1` [NaMN, nicotinic acid mononucleotide], for which the “crystal structure (3.31 Å, soaking with 20 mM NaMN); STD NMR” value in assay [1] was “we determined the crystal structure of the NaMN-bound ARM domain of Drosophila SARM1 (dSARM1ARM) (PDB: 7RTC”. The IC50 on hSARM1 (human SARM1) is 93.3 µM.
